Where a SMILES comes first, the peptide text is derived from it. [ ]: non-standard residue; d: D form. The star is where a group is joined. NHCH2CH2OH = OCCN*; For = O=C*
Legend:
[1] = system: Streptococcus pyogenes SSI-9; assay: Antibacterial activity assay of bead-derived peptides (three concentrations); assay type: cell-based; design: key: +++: inhibition by the 640-fold diluted peptide solution; ++: inhibition by the 160-fold diluted solution; +: inhibition by the 40-fold diluted solution; -: no inhibition; settings: S. pyogenes, bead-derived peptide solution, three concentrations
How it was run: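 Undiluted, 4-fold and 16-fold DMSO-diluted peptide stocks; S. pyogenes SSI-9, 2 × 10^5 CFU, cation-adjusted MHB (50 mg/L Ca2+, 25 mg/L Mg2+) + 5% laked horse blood; 37 °C, 18 h; readout = cell pellet visible or not.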

[2] = H+/Na+ transport assay of bead-derived peptides (one-point); assay type: biochemical; design: key: relative activity; mean of two control wells = 1.00; settings: bead-derived peptide solution, EYPC/EYPG LUVs;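 note: relative to parent gramicidin A activity set to 1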
How it was run: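 Miniaturized 96-well format. LUVs with entrapped pyranine (1.0 mM) were exposed to peptide for 30 min at RT. Intensities were expressed relative to full lysis by Triton X-100 and no treatment, with control-well mean = 1.00.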

[3] = system: P388 mouse leukemia cells; settings: 92 h
How it was run: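 P388 cells at 1 × 10^4 cells/mL (final) were exposed to library peptides (stocks diluted 250-fold in RPMI1640/10% FBS) for 92 h at 37 °C, 5% CO2. Viable cells were counted by WST-1/1-methoxy PMS (4 h), absorbance 415 nm, and expressed as cell viability (%).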

Structure (SMILES) | antibacterial activity [1] | H+/Na+ transport activity normalized against the value of 1 (1.00) [2] | cell viability/% [3]
CNC(=O)C[C@@H](NC(=O)[C@H](Cc1c[nH]c2ccccc12)NC(=O)[C@@H](CC(C)C)NC(=O)[C@H](Cc1c[nH]c2ccccc12)NC(=O)[C@@H](CC(C)C)NC(=O)[C@H](Cc1c[nH]c2ccccc12)NC(=O)[C@H](NC(=O)[C@@H](NC(=O)[C@@H](CC(C)C)NC(=O)[C@H](C)NC(=O)[C@@H](CC(C)C)NC(=O)[C@H](C)NC(=O)CNC(=O)[C@@H](NC=O)C(C)C)C(C)C)C(C)C)C(=O)N[C@@H](Cc1c[nH]c2ccccc12)C(=O)NCCO [compound 6829] (For-VGA[dL]A[dL]V[dV]W[dL]W[dL]W[dD](NHMe)W-NHCH2CH2OH) | - | 1.05 | 100.0%
CC(C)C[C@@H](NC(=O)[C@H](Cc1c[nH]c2ccccc12)NC(=O)[C@H](NC(=O)[C@@H](NC(=O)[C@H](NC(=O)[C@H](C)NC(=O)[C@H](NC(=O)[C@H](C)NC(=O)CNC(=O)[C@@H](NC=O)C(C)C)[C@H](C)O)C(C)C)C(C)C)C(C)C)C(=O)N[C@@H](Cc1c[nH]c2ccccc12)C(=O)N[C@H](CC(C)C)C(=O)N[C@@H](Cc1c[nH]c2ccccc12)C(=O)N[C@@H](C(=O)N[C@@H](Cc1c[nH]c2ccccc12)C(=O)NCCO)C(C)C [compound 6843] (For-VGA[dT]A[dV]V[dV]W[dL]W[dL]W[dV]W-NHCH2CH2OH) | - | 1.15 | 100.0%
CNC(=O)C[C@@H](NC(=O)[C@@H](NC(=O)[C@@H](CC(C)C)NC(=O)[C@H](C)NC(=O)[C@@H](CC(C)C)NC(=O)[C@H](C)NC(=O)CNC(=O)[C@@H](NC=O)C(C)C)C(C)C)C(=O)N[C@@H](Cc1c[nH]c2ccccc12)C(=O)N[C@H](CC(C)C)C(=O)N[C@@H](Cc1c[nH]c2ccccc12)C(=O)N[C@H](CC(C)C)C(=O)N[C@@H](Cc1c[nH]c2ccccc12)C(=O)N[C@@H](C(=O)N[C@@H](Cc1c[nH]c2ccccc12)C(=O)NCCO)C(C)C [compound 6851] (For-VGA[dL]A[dL]V[dD](NHMe)W[dL]W[dL]W[dV]W-NHCH2CH2OH) | - | 1.16 | 100.0%
CC(C)C[C@@H](NC(=O)[C@H](C)NC(=O)[C@H](NC(=O)[C@H](C)NC(=O)CNC(=O)[C@@H](NC=O)C(C)C)[C@H](C)O)C(=O)N[C@H](C(=O)N[C@@H](C(=O)N[C@@H](Cc1c[nH]c2ccccc12)C(=O)N[C@@H](C(=O)N[C@@H](Cc1c[nH]c2ccccc12)C(=O)N[C@H](CC(C)C)C(=O)N[C@@H](Cc1c[nH]c2ccccc12)C(=O)N[C@@H](C(=O)N[C@@H](Cc1c[nH]c2ccccc12)C(=O)NCCO)C(C)C)C(C)C)C(C)C)C(C)C [compound 6857] (For-VGA[dT]A[dL]V[dV]W[dV]W[dL]W[dV]W-NHCH2CH2OH) | - | 1.16 | 100.0%
CC(C)C[C@@H](NC(=O)[C@H](C)NC(=O)CNC(=O)[C@@H](NC=O)C(C)C)C(=O)N[C@@H](C)C(=O)N[C@@H](C(=O)N[C@H](C(=O)N[C@@H](C(=O)N[C@@H](Cc1c[nH]c2ccccc12)C(=O)N[C@@H](C(=O)N[C@@H](Cc1c[nH]c2ccccc12)C(=O)N[C@H](CC(C)C)C(=O)N[C@@H](Cc1c[nH]c2ccccc12)C(=O)N[C@@H](C(=O)N[C@@H](Cc1c[nH]c2ccccc12)C(=O)NCCO)C(C)C)C(C)C)C(C)C)C(C)C)C(C)C [compound 6861] (For-VGA[dL]A[dV]V[dV]W[dV]W[dL]W[dV]W-NHCH2CH2OH) | + | 1.18 | 100.0%
CNC(=O)C[C@@H](NC(=O)[C@@H](NC(=O)[C@H](NC(=O)[C@H](C)NC(=O)[C@H](NC(=O)[C@H](C)NC(=O)CNC(=O)[C@@H](NC=O)C(C)C)C(C)C)C(C)C)C(C)C)C(=O)N[C@@H](Cc1c[nH]c2ccccc12)C(=O)N[C@H](CC(C)C)C(=O)N[C@@H](Cc1c[nH]c2ccccc12)C(=O)N[C@H](CC(C)C)C(=O)N[C@@H](Cc1c[nH]c2ccccc12)C(=O)N[C@H](CC(C)C)C(=O)N[C@@H](Cc1c[nH]c2ccccc12)C(=O)NCCO [compound 6862] (For-VGA[dV]A[dV]V[dD](NHMe)W[dL]W[dL]W[dL]W-NHCH2CH2OH) | - | 1.31 | 100.0%
CC(C)C[C@@H](NC(=O)[C@H](C)NC(=O)CNC(=O)[C@@H](NC=O)C(C)C)C(=O)N[C@@H](C)C(=O)N[C@H](CC(C)C)C(=O)N[C@H](C(=O)N[C@@H](C(=O)N[C@@H](Cc1c[nH]c2ccccc12)C(=O)N[C@@H](C(=O)N[C@@H](Cc1c[nH]c2ccccc12)C(=O)N[C@@H](C(=O)N[C@@H](Cc1c[nH]c2ccccc12)C(=O)N[C@H](CC(C)C)C(=O)N[C@@H](Cc1c[nH]c2ccccc12)C(=O)NCCO)[C@H](C)O)C(C)C)C(C)C)C(C)C [compound 6876] (For-VGA[dL]A[dL]V[dV]W[dV]W[dT]W[dL]W-NHCH2CH2OH) | - | 1.13 | 100.0%
CC(C)C[C@@H](NC(=O)[C@H](C)NC(=O)[C@H](NC(=O)[C@H](C)NC(=O)CNC(=O)[C@@H](NC=O)C(C)C)C(C)C)C(=O)N[C@H](C(=O)N[C@@H](C(=O)N[C@@H](Cc1c[nH]c2ccccc12)C(=O)N[C@H](CC(C)C)C(=O)N[C@@H](Cc1c[nH]c2ccccc12)C(=O)N[C@@H](C(=O)N[C@@H](Cc1c[nH]c2ccccc12)C(=O)N[C@@H](C(=O)N[C@@H](Cc1c[nH]c2ccccc12)C(=O)NCCO)C(C)C)C(C)C)C(C)C)C(C)C [compound 6888] (For-VGA[dV]A[dL]V[dV]W[dL]W[dV]W[dV]W-NHCH2CH2OH) | + | 1.23 | 78.6%
CNC(=O)C[C@@H](NC(=O)[C@H](Cc1c[nH]c2ccccc12)NC(=O)[C@H](NC(=O)[C@@H](NC(=O)[C@@H](CC(C)C)NC(=O)[C@H](C)NC(=O)[C@@H](CC(C)C)NC(=O)[C@H](C)NC(=O)CNC(=O)[C@@H](NC=O)C(C)C)C(C)C)C(C)C)C(=O)N[C@@H](Cc1c[nH]c2ccccc12)C(=O)N[C@H](CC(C)C)C(=O)N[C@@H](Cc1c[nH]c2ccccc12)C(=O)N[C@@H](C(=O)N[C@@H](Cc1c[nH]c2ccccc12)C(=O)NCCO)C(C)C [compound 6889] (For-VGA[dL]A[dL]V[dV]W[dD](NHMe)W[dL]W[dV]W-NHCH2CH2OH) | - | 1.10 | 100.0%
CNC(=O)C[C@@H](NC(=O)[C@@H](NC(=O)[C@H](NC(=O)[C@H](C)NC(=O)[C@H](NC(=O)[C@H](C)NC(=O)CNC(=O)[C@@H](NC=O)C(C)C)C(C)C)C(C)C)C(C)C)C(=O)N[C@@H](Cc1c[nH]c2ccccc12)C(=O)N[C@H](CC(C)C)C(=O)N[C@@H](Cc1c[nH]c2ccccc12)C(=O)N[C@H](CC(C)C)C(=O)N[C@@H](Cc1c[nH]c2ccccc12)C(=O)N[C@@H](C(=O)N[C@@H](Cc1c[nH]c2ccccc12)C(=O)NCCO)C(C)C [compound 6899] (For-VGA[dV]A[dV]V[dD](NHMe)W[dL]W[dL]W[dV]W-NHCH2CH2OH) | - | 1.12 | 100.0%

Source: PMC7531004, “Discovery of gramicidin A analogues with altered activities by multidimensional screening of a one-bead-one-compound library” (Nature Communications, 2020)
